From patent US20210395239A1 (Hoffmann-La Roche Inc., priority 2018, published 2021) come the findings set out here.

SMILES strings stand for the structures.

The test has as its target T1, human TLR8 (Homo sapiens, UniProt Q9NR97).
T1 construct: host or cells: HEK293 (HEK-Blue hTLR8)
T1 sequence (Q9NR97 27-1041): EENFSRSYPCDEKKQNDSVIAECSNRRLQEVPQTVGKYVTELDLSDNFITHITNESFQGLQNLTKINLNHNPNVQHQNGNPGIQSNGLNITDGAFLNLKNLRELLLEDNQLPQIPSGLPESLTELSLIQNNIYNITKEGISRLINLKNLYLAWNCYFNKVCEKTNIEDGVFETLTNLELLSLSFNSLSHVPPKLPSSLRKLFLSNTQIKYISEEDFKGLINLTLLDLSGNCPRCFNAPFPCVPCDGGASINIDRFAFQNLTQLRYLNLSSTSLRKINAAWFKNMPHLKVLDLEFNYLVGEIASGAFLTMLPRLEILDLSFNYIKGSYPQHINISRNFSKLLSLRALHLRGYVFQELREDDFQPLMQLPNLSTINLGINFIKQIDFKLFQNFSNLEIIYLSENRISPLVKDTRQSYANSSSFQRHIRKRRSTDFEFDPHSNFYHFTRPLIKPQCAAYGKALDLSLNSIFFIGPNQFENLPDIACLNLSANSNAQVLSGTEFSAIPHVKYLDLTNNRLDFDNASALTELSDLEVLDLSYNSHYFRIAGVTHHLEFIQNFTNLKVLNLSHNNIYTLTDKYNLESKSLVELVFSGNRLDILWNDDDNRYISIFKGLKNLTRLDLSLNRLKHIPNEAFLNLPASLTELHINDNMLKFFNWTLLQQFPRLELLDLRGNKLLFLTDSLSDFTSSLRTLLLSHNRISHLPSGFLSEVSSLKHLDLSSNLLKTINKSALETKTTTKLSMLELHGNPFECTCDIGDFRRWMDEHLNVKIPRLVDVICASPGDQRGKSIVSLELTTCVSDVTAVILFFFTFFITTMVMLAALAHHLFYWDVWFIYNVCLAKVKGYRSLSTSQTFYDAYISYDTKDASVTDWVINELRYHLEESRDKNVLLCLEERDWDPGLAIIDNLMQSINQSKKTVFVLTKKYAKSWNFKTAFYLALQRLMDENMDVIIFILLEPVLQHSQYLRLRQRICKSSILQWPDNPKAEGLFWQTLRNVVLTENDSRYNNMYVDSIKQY
The test can be described thus: HEK293-Blue-hTLR-8 cells assay (SEAP reporter, R848 stimulation). It is filed as cell-based. The settings on record: HEK293-Blue-hTLR8 cells, R848, 20 hrs; read-out: HEK/hTLR8 IC50. An outline of the steps: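 HEK293-Blue-hTLR8 cells (NF-κB/AP-1-driven SEAP) incubated 20 h at 37° C with serially diluted compound (1% DMSO) plus R848 stimulation. Supernatant SEAP measured with QUANTI-Blue, 2 h at 37° C, absorbance 620–655 nm.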
Regarding `CO[C@@H]1CN(c2nc(C)cc(N3CCN(C[C@H]4CN(c5ccc(C#N)c6ncccc56)C[C@@H](C)O4)CC3)n2)C[C@H]1N` (single isomer, unassigned) [Example 69B], the IC50 came to 2 nM.
For `Cc1cc(N2CCN(C[C@H]3CN(c4ccc(C#N)c5ncccc45)C[C@@H](C)O3)CC2)nc(N2C[C@H](N)C[C@H](F)C2)n1` (relative stereo) [Example 74, 5-[(2R,6S)-2-methyl-6-[[4-[6-methyl-2-[cis-3-amino-5-fluoro-1-piperidyl]pyrimidin-4-yl]piperazin-1-yl]methyl]morpholin-4-yl]quinoline-8-carbonitrile] the value was 3 nM.
The same measure for `Cc1cc(N2CCN(C[C@H]3CN(c4ccc(C#N)c5ncccc45)C[C@@H](C)O3)CC2)nc(N[C@@H]2CNC[C@@H]2F)n1` [Example 71, 5-[(2S,6R)-2-[[4-[2-[[(3R,4S)-4-fluoropyrrolidin-3-yl]amino]-6-methyl-pyrimidin-4-yl]piperazin-1-yl]methyl]-6-methyl-morpholin-4-yl]quinoline-8-carbonitrile]: 15 nM; for `Cc1cc(N2CCN(C[C@H]3CN(c4ccc(C#N)c5ncccc45)C[C@@H](C)O3)CC2)nc(N2CCC(N)C(F)(F)C2)n1` (stereo partly drawn) [Example 86, 5-[(2S,6R)-2-[[4-[2-(4-amino-3,3-difluoro-1-piperidyl)-6-methyl-pyrimidin-4-yl]piperazin-1-yl]methyl]-6-methyl-morpholin-4-yl]quinoline-8-carbonitrile]: 6 nM.
For `Cc1cc(N2CCN(C[C@H]3CN(c4ccc(C#N)c5ncccc45)C[C@@H](C)O3)CC2)nc(N2CC[C@@H](F)[C@@H](N)C2)n1` [Example 83, 5-[(2R,6S)-2-methyl-6-[[4-[6-methyl-2-[(3S,4R)-3-amino-4-fluoro-1-piperidyl]-pyrimidin-4-yl]piperazin-1-yl]methyl]morpholin-4-yl]quinoline-8-carbonitrile] the value was 3 nM; for `Cc1cc(N2CCN(C[C@H]3CN(c4ccc(C#N)c5ncccc45)C[C@@H](C)O3)CC2)nc(N2CC[C@@H](N)C(F)C2)n1` (stereo in doubt) [Example 82, 5-[(2S,6R)-2-[[4-[2-[(3R,4R)-4-amino-3-fluoro-1-piperidyl]-6-methyl-pyrimidin-4-yl]piperazin-1-yl]methyl]-6-methyl-morpholin-4-yl]quinoline-8-carbonitrile], 1 nM.
Turning to `Cc1cc(N2CCN(C[C@H]3CN(c4ccc(C#N)c5ncccc45)C[C@@H](C)O3)CC2)nc(N[C@@H]2CNC[C@H]2F)n1` [Example 76, 5-[(2S,6R)-2-[[4-[2-[[(3R,4R)-4-fluoropyrrolidin-3-yl]amino]-6-methyl-pyrimidin-4-yl]piperazin-1-yl]methyl]-6-methyl-morpholin-4-yl]quinoline-8-carbonitrile], the IC50 stood at 3 nM.
As for `Cc1cc(N2CCN(C[C@H]3CN(c4ccc(C#N)c5ncccc45)C[C@@H](C)O3)CC2)nc(N2C[C@@H](N)[C@H](F)C2)n1` [Example 79, 5-[(2S,6R)-2-[[4-[2-[(3R,4R)-3-amino-4-fluoro-pyrrolidin-1-yl]-6-methyl-pyrimidin-4-yl]piperazin-1-yl]methyl]-6-methyl-morpholin-4-yl]quinoline-8-carbonitrile], the IC50 came out at 2 nM.
For the compound `CO[C@H]1CN(c2nc(C)cc(N3CCN(C[C@H]4CN(c5ccc(C#N)c6ncccc56)C[C@@H](C)O4)CC3)n2)CCC1N` (stereo in doubt) [Example 90, 5-[(2S,6R)-2-[[4-[2-[(3S,4S)-4-amino-3-methoxy-1-piperidyl]-6-methyl-pyrimidin-4-yl]piperazin-1-yl]methyl]-6-methyl-morpholin-4-yl]quinoline-8-carbonitrile], the IC50 was 2 nM.
For `CO[C@H]1CN(c2nc(C)cc(N3CCN(C[C@H]4CN(c5ccc(C#N)c6ncccc56)C[C@@H](C)O4)CC3)n2)C[C@@H]1N` (single isomer, unassigned) [Example 69A] the value was 2 nM.
As to `Cc1cc(N2CCN(C[C@H]3CN(c4ccc(C#N)c5ncccc45)C[C@@H](C)O3)CC2)nc(N2C[C@H](N)C[C@@H](F)C2)n1` (relative stereo) [Example 75, 5-[(2R,6S)-2-methyl-6-[[4-[6-methyl-2-[trans-3-amino-5-fluoro-1-piperidyl]pyrimidin-4-yl]piperazin-1-yl]methyl]morpholin-4-yl]quinoline-8-carbonitrile], the IC50 was 3 nM.
For `Cc1cc(N2CCN(C[C@H]3CN(c4ccc(C#N)c5ncccc45)C[C@@H](C)O3)CC2)nc(N2CC(N)CC(F)(F)C2)n1` (stereo partly drawn) [Example 80, 5-[(2S,6R)-2-[[4-[2-(5-amino-3,3-difluoro-1-piperidyl)-6-methyl-pyrimidin-4-yl]piperazin-1-yl]methyl]-6-methyl-morpholin-4-yl]quinoline-8-carbonitrile] the value was 6 nM.
For the compound `Cc1cc(N2CCN(C[C@H]3CN(c4ccc(C#N)c5ncccc45)C[C@@H](C)O3)CC2)nc(NC2CNCC2F)n1` (stereo in doubt) [Example 73, 5-[(2S,6R)-2-[[4-[2-[[(3S,4R)-4-fluoropyrrolidin-3-yl]amino]-6-methyl-pyrimidin-4-yl]piperazin-1-yl]methyl]-6-methyl-morpholin-4-yl]quinoline-8-carbonitrile], the IC50 worked out at 17 nM.
For `COC1CNCC1Nc1nc(C)cc(N2CCN(C[C@H]3CN(c4ccc(C#N)c5ncccc45)C[C@@H](C)O3)CC2)n1` (stereo in doubt) [Example 70, 5-[(2S,6R)-2-[[4-[2-[[(3R,4R)-4-methoxypyrrolidin-3-yl]amino]-6-methyl-pyrimidin-4-yl]piperazin-1-yl]methyl]-6-methyl-morpholin-4-yl]quinoline-8-carbonitrile] the value was 12 nM.
As for `Cc1cc(N2CCN(C[C@H]3CN(c4ccc(C#N)c5ncccc45)C[C@@H](C)O3)CC2)nc(N2CC[C@@H](F)C(N)C2)n1` (single isomer, unassigned) [Example 84], the IC50 was 7 nM.
For `Cc1cc(N2CCN(C[C@H]3CN(c4ccc(C#N)c5ncccc45)C[C@@H](C)O3)CC2)nc(N2C[C@@H](N)C[C@@H](F)C2)n1` [Example 77, 5-[(2S,6R)-2-[[4-[2-[(3S,5R)-3-amino-5-fluoro-1-piperidyl]-6-methyl-pyrimidin-4-yl]piperazin-1-yl]methyl]-6-methyl-morpholin-4-yl]quinoline-8-carbonitrile] the value was 2 nM; for `C[C@@H]1CN(c2ccc(C#N)c3ncccc23)C[C@H](CN2CCN(c3ccccc3C3CNCCO3)CC2)O1` (stereo partly drawn) [Example 89, 5-[(2R,6S)-2-methyl-6-[[4-(2-morpholin-2-ylphenyl)piperazin-1-yl]methyl]morpholin-4-yl]quinoline-8-carbonitrile], 29 nM; for `Cc1cc(N2CCN(C[C@H]3CN(c4ccc(C#N)c5ncccc45)C[C@@H](C)O3)CC2)nc(N2CC(N)C2)n1` [Example 87, 5-[(2S,6R)-2-[[4-[2-(3-aminoazetidin-1-yl)-6-methyl-pyrimidin-4-yl]piperazin-1-yl]methyl]-6-methyl-morpholin-4-yl]quinoline-8-carbonitrile], 2 nM.
For `COC1CN(c2nc(C)cc(N3CCN(C[C@H]4CN(c5ccc(C#N)c6ncccc56)C[C@@H](C)O4)CC3)n2)CC1N` (single isomer, unassigned) [Example 88] the value was 2 nM; for `Cc1cc(N2CCN(C[C@H]3CN(c4ccc(C#N)c5ncccc45)C[C@@H](C)O3)CC2)nc(N2CCNC(C(C)(C)O)C2)n1` (stereo partly drawn) [Example 81, 5-[(2S,6R)-2-[[4-[2-[3-(1-hydroxy-1-methyl-ethyl)piperazin-1-yl]-6-methyl-pyrimidin-4-yl]piperazin-1-yl]methyl]-6-methyl-morpholin-4-yl]quinoline-8-carbonitrile], 2 nM.
With `CO[C@@H]1CN(c2nc(C)cc(N3CCN(C[C@H]4CN(c5ccc(C#N)c6ncccc56)C[C@@H](C)O4)CC3)n2)C[C@@H]1N` [Example 72, 5-[(2S,6R)-2-[[4-[2-[(3S,4R)-3-amino-4-methoxy-pyrrolidin-1-yl]-6-methyl-pyrimidin-4-yl]piperazin-1-yl]methyl]-6-methyl-morpholin-4-yl]quinoline-8-carbonitrile], the IC50 is 3 nM.
`Cc1cc(N2CCN(C[C@H]3CN(c4ccc(C#N)c5ncccc45)C[C@@H](C)O3)CC2)nc(N2CC[C@@H](N)[C@@H](F)C2)n1` [Example 78, 5-[(2S,6R)-2-[[4-[2-[(3S,4R)-4-amino-3-fluoro-1-piperidyl]-6-methyl-pyrimidin-4-yl]piperazin-1-yl]methyl]-6-methyl-morpholin-4-yl]quinoline-8-carbonitrile]: the IC50 turned out to be 1 nM.
